Test results reported in patent publication US20070212745A1, “BETA-GLUCOSIDASE AND A PROCESS FOR EXTRACTION THEREOF” (priority 2006, published 2007).

Tested on: β glucosidase
Assay: Effect of FeSO4 on β glucosidase
Format: biochemical, Rauvolfia serpentina
Conditions: for Fold activity enhanced: relative to 0 mM
Procedure: Rauvolfia serpentina (Sarpgandha) plants were raised from root cuttings at the glass house of Central Institute of Medicinal and Aromatic Plants (CIMAP), Lucknow by following standard agronomic practices. The extraction of the glucosidase enzyme was optimized with respect to buffer, pH, protecting and stabilizing agents to obtain maximum extractable activity. All the operations of enzyme isolation were carried out at 0-4° C. unless specified otherwise. The extraction medium of present invention also relates to a process for the extraction of a B glucosidase from plant tissues from a natural source and useful for the cleaving of β-1,4 linkage of PNPG, said process comprising: homogenizing the plant tissue in a cold extraction medium (1 g tissue/3 ml). Flowers of Rauvolfia serpentina were homogenized in 100 mM K-phosphate buffer (pH 6.0) including 10 mM β-Mercapto ethanol and 2 mM E.D.T.A. (Ethylene Diamine Tetra Acetic Acid). The tissue homogenate was centrifuged at 12,000×g for 30 min at 4° C. and the clear supernatant was collected. Assays specific for the determination of optimum pH, optimum temperature, stability and activation were performed.
Enzyme activity was assayed using the modified method described by Stevens et al, assay mixture in a total volume of 200 μL contained 2.5 mM p-nitrophenyl β-D-glucopyranoside in 100 mM Citrate-Phosphate buffer (pH 5) at defined temperatures with 10 μL of enzyme preparation. After 15 min of incubation time the reaction was stopped by adding 800 μL of 1M Sodium carbonate and the absorbance of p-nitrophenol (the product of reaction) was measured at wavelength 405 nm.
Calculation of Units: The enzyme activity was expressed in terms of μmole of p-nitrophenol formed per minute using the molar extinction coefficient (E) 18,350 m^−1 cm^−1 [Estibalitz, O., Richard, O. A., and Ioannis, Z., 2001. The role of β-glucosidase in biosynthesis of 2,5-dimethyl-4-hydroxy-3 (2H)-furanone in strawberry. Flavour and Fragrance J., 16: 81-84.]

β glucosidase Activity (I.U.) (FeSO4 Conc. 1 mM): 71.93 I.U.
Fold activity enhanced (FeSO4 Conc. 1 mM): 1.74 Fold
β glucosidase Activity (I.U.) (FeSO4 Conc. 5 mM): 335.69 I.U.
Fold activity enhanced (FeSO4 Conc. 5 mM): 8.11 Fold
β glucosidase Activity (I.U.) (FeSO4 Conc. 10 mM): 627.79 I.U.
Fold activity enhanced (FeSO4 Conc. 10 mM): 15.16 Fold
effect of FeSO4 on enzyme activity (in words): activation
SMILES: O=S(=O)([O-])[O-].[Fe+2] [FeSO4]
